Assay results from the supplement of paper PMC11997997.

Legend:
[1] = test system: Mycobacterium tuberculosis CDC1551 (intracellular, in murine BMDM); assay: area under intracellular growth-inhibition dose-response curve (AUC (% inhibition x dose, relative)); higher = more potent; settings: duration: 6 days; dose range: 0.13-80 uM, 8 points
In short: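 Each value is an area under the growth-inhibition dose–response curve, calculated with GraphPad Prism. Infected primary murine bone marrow-derived macrophages, carrying luciferase-expressing M. tuberculosis CDC1551 at multiplicity of infection 1, were treated for 6 days with an 8-dose, 2.5-fold series (final 80–0.13 μM) in 384-well opaque plates. Readout was by Bright-Glo luciferin assay, normalised to a reference drug control and the lowest-concentration wells.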

[2] = test system: murine bone marrow-derived macrophages; assay: area under cytotoxicity dose-response curve (AUC (% cytotoxicity x dose, relative)); higher = more cytotoxic; settings: duration: 6 days; dose range: 0.13-80 uM, 8 points
In short: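 An 8-point, 2.5-fold dilution series (final 80–0.13 μM) was applied for 6 days at 37 °C in 5% CO2 to primary murine bone marrow-derived macrophages plated in opaque 384-well plates. Promega's CellTiter-Glo luminescence assay measured viability, and percent cytotoxicity was normalised against vehicle and positive control wells. The area under the dose–response curve, worked out in GraphPad Prism version 10, is the reported cytotoxicity measure.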

Row | SMILES | area under intracellular growth-inhibition dose-response curve [1] | area under cytotoxicity dose-response curve [2]
1 | COc1cccc(OCCNC(=O)c2cc([N+](=O)[O-])cc([N+](=O)[O-])c2)c1 | 265 | 10.6
2 | CCN1/C(=C/C(C)=C/c2sc3ccccc3[n+]2CC)Sc2ccccc21.[I-] | 138 | 94.9
3 | CCC(=O)NC(=S)Nc1ccc(NC(=O)c2ccccc2[N+](=O)[O-])cc1 | 267 | 32.7
4 | O=[N+]([O-])C(=C\Nc1ccccc1O)/C=N/c1ccccc1O | 57.2 | 3.94
5 | CCC(NC(=O)Nc1nnc(C(F)(F)F)s1)(C(F)(F)F)C(F)(F)F | 143 | 14.5
6 | Cc1c(Cl)c(C(F)F)nn1CC(=O)NC1C(=O)N2C(C(=O)O)=C(CSc3nnnn3C)CSC12 (stereo not given) | 151 | 121
7 | CCOC(=O)c1c(-c2ccccc2)nc2cc(C)ccn12 | 147 | 1.58
8 | COc1ccc(/C=N/Nc2nc(-c3ccc(C)cc3)c(NC(C)=O)s2)cc1 | 272 | < 0
9 | Cc1ccc(C(=O)NC(C)C2CC3CCC2C3)cc1 (stereo not given) | 267 | < 0
10 | C=C[C@]1(C)C[C@@H](OC(=O)CSCCN(CC)CC)[C@]2(C)C(C)CC[C@]3(CCC(=O)[C@H]32)[C@@H](C)[C@@H]1O.O=C(O)/C=C/C(=O)O (stereo not given in full) | 199 | 89.1
11 | CNC[C@@H](CC1CCCCC1)NC[C@H](CC(C)C)NCCc1cccc(C(F)(F)F)c1 | 197 | 94
12 | CCCc1cc(C(N)=S)ccn1 | 215 | 8.35
13 | Cc1ccc(C(=O)N2CCN(c3ccc(NC(=S)NC(=O)c4cccs4)cc3)CC2)cc1 | 275 | < 0
14 | O=C(Nc1ccc(NC(=S)NC(=O)c2ccco2)cc1)c1ccccc1 | 192 | 40
15 | O=C(O)C(=O)O.O=[N+]([O-])c1ccc(N2CCN(Cc3ccc([N+](=O)[O-])o3)CC2)cc1 | 245 | 45.2
16 | CC(=O)c1cc(NC(=O)c2cccc(C(F)(F)F)c2)c(=O)oc1/C=C/N(C)C | 194 | 64.4
17 | C/C(CC(=O)Nc1ccccc1C#N)=N\NC(=O)c1ccncc1 | 229 | 98.9
18 | CCC(=O)N1CCN(c2ccc(NC(=O)c3ccc([N+](=O)[O-])o3)cc2Cl)CC1 | 58.5 | 30.3
19 | CC(=O)OCC1=C(C(=O)O)N2C(=O)[C@@H](NC(=O)CSc3ccncc3)[C@H]2SC1.[Na+] | 114 | 52.5
20 | Cc1ccc(C)c(NC(=N)Nc2nc(C)cc(C)n2)c1 | 218 | < 0
21 | O=C(Nc1ccc(S(=O)(=O)Nc2nccs2)cc1)c1c(F)c(F)c(F)c(F)c1F | 82.5 | 64.8
22 | NC(=S)N/N=C/c1ccc(-c2cc(Cl)cc(Cl)c2)o1 | 230 | 41.6
23 | CC1CCCN(C(=O)c2ccc(CNc3c(N4CCCCC4)c(=O)c3=O)cc2)C1 (stereo not given) | 271 | 23
24 | C/C(=N\NC(=O)c1ccncc1)c1ccc(N(C)C)cc1 | 182 | 58.7
25 | CCOC(=O)c1cnc(-n2nc(C)cc2C)nc1NCCc1ccccc1 | 247 | 21.7
26 | CC(C)C(=O)N1CCN(c2ccc(NC(=O)c3ccc([N+](=O)[O-])o3)cc2)CC1 | 64.2 | 84.2
27 | CC(=O)n1cc(/C=N/NC(N)=S)c2ccccc21 | 273 | < 0
28 | CSc1nnc(-c2ccc(NC(N)=S)cc2)o1 | 154 | 96.1
29 | O=C(Nc1ccc(F)cc1)NC1CCCCCCC1 | 182 | 144
30 | O=C(COC(=O)c1ccc([N+](=O)[O-])o1)Nc1ccc(F)cc1 | 144 | < 0
